Where two headings read alike, the source gives them in different places.
Test system: HCV genotype 1b
Assay: HCV 1b replicon luciferase assay
Type: cell-based
Description: A suitable 1b HCV RNA replicon assay uses the Huh7 cell line which contains an HCV 1b RNA replicon with a stable luciferase (LUC) reporter. This construct contains modifications that make the cell line more robust and provides stable LUC expression for antiviral screening. The LUC reporter is used as an indirect measure of HCV replication. The activity of the LUC reporter is directly proportional to HCV RNA levels and positive control antiviral compounds behave comparably using LUC endpoints. […]
Fresh growth medium is prepared just before use. The container used in the procedure is a 10 cm diameter culture dish. HCV replicon reporter cell lines are used. Prepare complete medium: add FBS and appropriate additives as described in “Culture Media”, below. Pre-warm the medium in a 37° C. thermostat water bath. Remove the dish from a 37° C. CO2 incubator. Check the cell name and complete medium and passage number marked on the dish. Aspirate the medium carefully and add 1 ml PBS to rinse the cells. Remove and discard the solution and add 1 ml of 0.25% Trypsin/0.02% EDTA. Rinse the cells with the added Trypsin/EDTA to ensure all the cells have been rinsed. Remove the Trypsin/EDTA with a vacuum pump and incubate at 37° C. for 3-5 minutes. Examine the cell morphology under an inverted microscope to confirm that a single cell suspension is clearly visible. Add 3 ml of complete medium to the dish and suspend the cell by gentle pipetting. Count the cell numbers with a hematometer. Adjust cell density to 100 k/ml by adding appropriate volume of the complete medium. Add 100 μl of cell suspension to each well of a 96-well white plate; the cell density is thus 10 k per well. Mark the plate with cell name, passage number, seeding density, date and the name of the operator. Place the 96-well assay plate in 37° C. 5% CO2 incubator for 24 hours.
Compounds are prepared or provided at 25 mM in 100% DMSO. This is the compound stock solution. The dilution procedure should be performed in a cell culture hood. Dispense the stock solution into the second column of a 96-well plate. Prepare 9-step (10 concentrations total), 5-fold serial dilutions by transferring 10 μA of the compound into the next well containing 40 μA of DMSO. Repeat for all compounds. Aspirate 2 μl of the above compound solution from each well and add into 198 μl complete media using a 12-channel pipetter to obtain the 10-fold concentration compound solution with 1% DMSO, mix well.
Remove the 96-well assay plate from the 37° C./5% CO2 incubator, examine the cell morphology under an inverted microscope. In a cell culture hood, add 10 μl of the 10× concentration compounds solution into each well on the 96-well assay plate. All compound's dose responses are done in duplicate. The starting final concentration of the compounds is 25 μM, and DMSO final concentration 0.1%. Mark the plate with compound code(s) and concentrations. Place the 96-well assay plate into CO2 incubator for 48 hours. Add 30 μl of Stead-Glo Luciferase System (Promega) reagent to each well and mix by gentle shaking on a plate shaker for 5 minutes to allow throughout cell lysis. Measure the luminescence with Envision (Perkin Elmer) with an integration time of 2 seconds. Record and analyze the data.
The cell culture media is DMEM complete: DMEM (Life Technologies #41965-039) supplemented with 10% FCS, 2 mM Glutamin (Life Technologies #25030-024), Penicillin (100 IU/ml)/Streptomycin (100 μg/ml) (Life Technologies #15140-114) and 1× nonessential amino acids (Life Technologies #11140-035). G418 (“Geneticin”, Life Technologies): concentrations are given as weight per volume of the original substance. Specific activity of a typical batch is ca. 700 μg/mg as stated by the manufacturer. […] Therefore each new batch of G418 should be tested individually e.g. in an electroporation experiment using different selection conditions (0.2-1 mg/ml).

[1] = Hepatitis C virus, 48 h, read-out: EC50 in the 48 hour 1b replicon assay, 48 hour
[2] = Hepatitis C virus, Huh-7, 48 h, Table 1, Huh7 HCV 1b replicon, luciferase reporter, 48 hours, read-out: 1b EC50

Row | Compound | EC50 [2] [µM] | further results
1 | Cn1nc(C(=O)NC2CCNCC2)c2ccc(N3CCCCCC3)nc21 [EBP697] |  | EC50 [1]: < 3 µM
2 | CCC(CC)Oc1ccc2c(C(=O)NC3CCNCC3)n[nH]c2n1 [EBP726] |  | EC50 [1]: < 3 µM
3 | CCC(CC)Oc1ccc2c(COCC3CCNCC3)nn(Cc3ccc(Cl)cc3)c2n1 [EBP756] |  | EC50 [1]: < 3 µM
4 | Cc1ccc(C(=O)Nc2nn(C)c3nc(N4CCCCCC4)ccc23)s1 [EBP841] |  | EC50 [1]: < 3 µM
5 | CC1CC(NCc2nn(C)c3nc(N4CCCCCC4)ccc23)CCN1 (centres unmarked) [EBP909] |  | EC50 [1]: < 3 µM
6 | Cn1nc(C(=O)NC2CCN(CC3CCCCC3)CC2)c2ccc(N3CCCCCC3)nc21 [EBP987] |  | EC50 [1]: < 3 µM
7 | Cn1nc(C(=O)NCc2cccs2)c2cc(NC3CCCCC3)cnc21 [EBP1147] |  | EC50 [1]: < 3 µM
8 | Cn1nc(CCCN2CCCC2)c2ccc(N3CCCCCCC3)nc21 [EBP1171] |  | EC50 [1]: < 3 µM
9 | O=C(Nc1n[nH]c2nc(N3CCCCCC3)ccc12)C1CCCNC1 (centres unmarked) [compound 681] | 8.5 | 
10 | CC(C)CNc1ccc2c(C(=O)NC3CCCNC3)nn(C)c2n1 (centres unmarked) [compound 684] | 10 | 
11 | CC(C)CN(C)c1ccc2c(C(=O)NC3CCCNC3)nn(C)c2n1 (centres unmarked) [compound 686] | 2.6 | 
12 | CC(C)CNc1ccc2c(C(=O)NC3CCNCC3)nn(C)c2n1 [compound 688] | 4.9 | 
13 | CC(C)CN(C)c1ccc2c(C(=O)NC3CCNCC3)nn(C)c2n1 [compound 690] | 1.2 | 
14 | Cn1nc(C(=O)NC2CCCNC2)c2ccc(N3CCCCCC3)nc21 (centres unmarked) [compound 698] | 3.8 | 
15 | Cn1nc(C(=O)NC2CCN(S(C)(=O)=O)CC2)c2ccc(N3CCCCCC3)nc21 [compound 699] | 3.8 | 
16 | Cn1nc(C(=O)NC2CCCN(S(C)(=O)=O)C2)c2ccc(N3CCCCCC3)nc21 (centres unmarked) [compound 700] | 3.8 | 
17 | O=C(NC1CCNCC1)c1nn(Cc2ccc(Cl)cc2)c2nc(N3CCCCCC3)ccc12 [compound 704] | 2.5 | 
18 | O=C(NC1CCCNC1)c1nn(Cc2ccc(Cl)cc2)c2nc(N3CCCCCC3)ccc12 (centres unmarked) [compound 705] | 2.7 | 
19 | O=C(N[C@H]1CCNC1)c1nn(Cc2ccc(Cl)cc2)c2nc(N3CCCCCC3)ccc12 [compound 707] | 3.3 | 
20 | CC1CC(NC(=O)c2nn(Cc3ccc(Cl)cc3)c3nc(N4CCCCCC4)ccc23)CCN1 (centres unmarked) [compound 708] | 2.4 | 
21 | O=C(NC1CCNCC1)c1nnc2n(Cc3ccc(Cl)cc3)c(N3CCCCCC3)ccc1-2 [compound 709] | 8.7 | 
22 | O=C(NC1CCCNC1)c1nnc2n(Cc3ccc(Cl)cc3)c(N3CCCCCC3)ccc1-2 (centres unmarked) [compound 710] | 7.9 | 

Row | Compound | EC50 [2] [µM] | further results
23 | O=C(NC1CCNC1)c1nnc2n(Cc3ccc(Cl)cc3)c(N3CCCCCC3)ccc1-2 (centres unmarked) [compound 712] | 8.2 | 
24 | CC1CC(NC(=O)c2nnc3n(Cc4ccc(Cl)cc4)c(N4CCCCCC4)ccc2-3)CCN1 (centres unmarked) [compound 713] | 6.1 | 
25 | CCC(CC)Oc1ccc2c(C(=O)NC3CCCNC3)n[nH]c2n1 (centres unmarked) [compound 725] | 7.6 | 
26 | O=C(NC1CCCNC1)c1n[nH]c2nc(OC3CCCCC3)ccc12 (centres unmarked) [compound 728] | 8 | 
27 | CC1CC(NC(=O)c2n[nH]c3nc(N4CCCCCC4)ccc23)CCN1 (centres unmarked) [compound 734] | 2.6 | 
28 | O=C(/C=C/c1cccnc1)Nc1nn(Cc2ccc(Cl)cc2)c2nc(N3CCCCCC3)ccc12 [compound 747] | 9 | 
29 | O=C(NC1CC2CCCC(C1)N2)c1nn(Cc2ccc(Cl)cc2)c2nc(N3CCCCCC3)ccc12 (centres unmarked) [compound 751] | 2 | 
30 | Nc1nn(Cc2ccc(Cl)cc2)c2nc(N3CCCCCC3)ccc12 [compound 759] | 8.6 | 
31 | Clc1ccc(Cn2nc(CNC3CCNCC3)c3ccc(N4CCCCCC4)nc32)cc1 [compound 762] | 2.9 | 
32 | Clc1ccc(Cn2nc(CN3CCCC3)c3ccc(N4CCCCCC4)nc32)cc1 [compound 763] | 8.7 | 
33 | CN(Cc1ccccc1)c1ccc2c(C(=O)NC3CCNCC3)n[nH]c2n1 [compound 777] | 2 | 
34 | COC[C@@H]1CCCN1c1ccc2c(C(=O)NC3CCNCC3)n[nH]c2n1 [compound 778] | 17 | 
35 | Cn1nc(NC(=O)c2ccncc2)c2ccc(N3CCCC3)nc21 [compound 788] | 9.5 | 
36 | Cn1nc(CN2CCCC2CO)c2ccc(N3CCCCCC3)nc21 (centres unmarked) [compound 791] | 8.5 | 
37 | CCC(CC)Oc1ccc2c(COCCN3CCCCC3)nn(Cc3ccc(Cl)cc3)c2n1 [compound 792] | 4.6 | 
38 | CCC(CC)Oc1ccc2c(C(=O)NC3CCCNC3)nn(Cc3ccc(Cl)cc3)c2n1 (centres unmarked) [compound 794] | 2.8 | 
39 | CCC(CC)Oc1ccc2c(C(=O)NC3CCNCC3)nn(Cc3ccc(Cl)cc3)c2n1 [compound 795] | 3.2 | 
40 | Cn1nc(CNC2CCCNC2)c2ccc(N3CCCCCC3)nc21 (centres unmarked) [compound 811] | 2.9 | 
41 | Cn1nc(CN2CCNCC2)c2ccc(N3CCCCCC3)nc21 [compound 812] | 4.6 | 
42 | O=C(CC1CCNCC1)Nc1nn(Cc2ccc(Cl)cc2)c2nc(N3CCCC3)ccc12 [compound 813] | 6.8 | 
43 | CCC(CC)Oc1ccc2c(C(=O)NC3CCCNC3)nn(C)c2n1 (centres unmarked) [compound 815] | 6.6 | 
44 | CCC(CC)Oc1ccc2c(C(=O)NC3CCNCC3)nn(C)c2n1 [compound 816] | 2.4 | 

Row | Compound | EC50 [2] [µM] | further results
45 | Cn1nc(C(=O)NC2CCNCC2)c2ccc(OC3CCCCC3)nc21 [compound 817] | 3.4 | 
46 | Cn1nc(C(=O)N[C@H]2CCNC2)c2ccc(N3CCCCCC3)nc21 [compound 822] | 4.3 | 
47 | Cn1nc(C(=O)N2CCNCC2)c2ccc(N3CCCCCC3)nc21 [compound 823] | 7.6 | 
48 | Cn1nc(C(=O)Nc2cccc(S(N)(=O)=O)c2)c2ccc(N3CCCCCC3)nc21 [compound 824] | 3.5 | 
49 | Cn1nc(C(=O)Nc2cc[nH]n2)c2ccc(N3CCCCCC3)nc21 [compound 827] | 3.2 | 
50 | Cn1nc(C(=O)N2CCC(N)CC2)c2ccc(N3CCCCCC3)nc21 [compound 829] | 8.7 | 
51 | Cn1nc(C(=O)NCc2ccccc2)c2ccc(N3CCCCCC3)nc21 [compound 830] | 7.3 | 
52 | Cn1nc(C(=O)NC2CC3CCCC(C2)N3)c2ccc(N3CCCCCC3)nc21 (centres unmarked) [compound 831] |  | EC50 (Table 1, Huh7 HCV 1b replicon, luciferase reporter, 48 hours, read-out: 1b EC50): 2.7 µM
53 | Cn1nc(NC(=O)c2cccnc2Cl)c2ccc(N3CCCCCC3)nc21 [compound 832] | 3.3 | 
54 | Cn1nc(NC(=O)c2ccncc2Cl)c2ccc(N3CCCCCC3)nc21 [compound 833] | 2.9 | 
55 | Cn1nc(NC(=O)C2CCCCC2)c2ccc(N3CCCCCC3)nc21 [compound 835] | 2.4 | 
56 | Cn1nc(NC(=O)c2ccccc2C(F)(F)F)c2ccc(N3CCCCCC3)nc21 [compound 836] | 4.1 | 
57 | Cn1nc(NC(=O)c2cccnc2)c2ccc(N3CCCCCC3)nc21 [compound 838] | 3.8 | 
58 | Cn1nc(NC(=O)c2ccncc2)c2ccc(N3CCCCCC3)nc21 [compound 839] | 2.5 | 
59 | Cn1nc(NC(=O)CC2CCCNC2)c2ccc(N3CCCCCC3)nc21 (centres unmarked) [compound 843] | 8.3 | 
60 | Cn1nc(NC(=O)[C@H]2CC[C@@H](N)CC2)c2ccc(N3CCCCCC3)nc21 [compound 844] | 6.6 | 
61 | O=C(NC1CCNCC1)c1nn(CC2CCCCC2)c2nc(N3CCCCCC3)ccc12 [compound 845] | 2 | 
62 | O=C(NCC1CCCNC1)c1nn(Cc2ccc(Cl)cc2)c2nc(N3CCCCCC3)ccc12 (centres unmarked) [compound 850] | 2.5 | 
63 | CC(C)Cn1nc(C(=O)NC2CCNCC2)c2ccc(N3CCCCCC3)nc21 [compound 852] | 2.9 | 
64 | O=C(NC1CCNCC1)c1nn(Cc2cccc(Cl)c2)c2nc(N3CCCCCC3)ccc12 [compound 854] | 7.2 | 
65 | O=C(NC1CCNCC1)c1nn(CCc2ccc(Cl)cc2)c2nc(N3CCCCCC3)ccc12 [compound 855] | 3.7 | 

From US20120232062A1, “AZAINDAZOLES TO TREAT FLAVIVIRIDAE VIRUS INFECTION” (EIGER BIOPHARMACEUTICALS, INC., priority 2009, published 2012)
